Read-outs that look alike come from different tables or passages of the source. Positions of bridges follow the written chain, without caps; N, C: chain ends. No end group written: not given here.

Data set [1] concerns methicillin-resistant S. pseudintermedius (MRSP). In kind it is cell-based. As to the method: (§1) The minimum inhibitory concentrations (MICs) of CAMPs (SEQ ID NOs: 1, 2, 3, and 4) were determined according to the guidelines of the Clinical and Laboratory Standards Institute (CLSI). The Muller Hinton (MH) II broth used in MIC assay was supplemented with 20-25 mg/L of calcium and 10-12.5 mg/L of magnesium. In brief, peptides were two-fold serially diluted (2 to 256 μg/ml) in a 96-well microtiter plate (Nunc™, Thermo Fisher Scientific) and an equal volume (μl) of bacterial suspension was added to each well of the plate. The final bacterial concentration in the wells was 5×10^5 CFU/ml. […] All assays were conducted in triplicate.

Another data set deals with P. aeruginosa. In kind it is cell-based. As to the method:
as §1

Data set [2] concerns S. aureus (ATCC 29213). In kind it is cell-based. On the procedure: as §1
For data set [3], the system named is P. aeruginosa (ATCC 27853). It is filed as cell-based. As to the method:
(§2) The minimum inhibitory concentrations (MIC) of AvBDs (SEQ ID NOs: 5, 6, 7, 8, 9, 10, 11, 12, and 13) were determined under low salt and standard conditions according to the guidelines of the Clinical and Laboratory Standards Institute (CLSI). […] An equal volume […] of bacterial suspension was added to each well of the plate. The final bacterial concentration in the wells was 5×10^5 CFU/ml. […] To complement MIC-1s assays, the minimum bactericidal concentrations (MBC) were evaluated by sub-culturing the contents of the first two clear wells obtained in the MIC-1s assay onto LB agar plates. All assays were conducted in triplicate. The lowest peptide concentration inhibiting about, at least, or more than 99% of bacterial growth was defined as MBC-1s. The analogues were regarded as bactericidal when the MBC was determined to be no more than four times the MIC.

Data set [4] concerns Gram-positive bacteria (S. aureus and MRSP strains). Description: MIC assay, Example One, pooled over Gram-positive strains. In kind it is cell-based, S. pseudintermedius. To be noted: mean over the Gram-positive strains of Table 2. As to the method: as §1
The Hemolytic Assay includes the following procedures. […] The supernatant was transferred to a 96-well flat-bottomed polystyrene plate (Thermo Fisher Scientific), and the amount of hemoglobin released into the supernatant was determined by measuring the absorbance with a spectrophotometer at 540 nm. Hemolytic activity was expressed as the percentage of hemolysis and calculated using the following equation: hemolysis (%)=(As−A0)/(A100−A0)×100, where As is the absorbance of the sample, A100 is the absorbance of completely lysed RBCs in 0.2% Triton X-100, and A0 is the absorbance in the complete absence of hemolysis (PBS treatment). […] Therapeutic index (T.I.) was calculated according to a previously published formula: T.I.=MHC/MICGM. […]

A further data set has as its system JAWSII cells. Briefly: Cell cytotoxicity assay (MTT). In kind it is cell-based, mouse. To be noted: 4, 16, 64, 256 μg/ml for 4, 12, 24, and 48 hour. As to the method:
The Cell Cytotoxicity Assay includes the following procedures. Mouse immature dendritic cell line, JAWSII (ATCC CRL-11904™), was cultured in Alpha minimum essential medium with ribonucleosides, deoxyribonucleosides, 4 mM L-glutamine, 1 mM sodium pyruvate, and 5 ng/ml murine Granulocyte macrophage colony-stimulating factor (GM-CSF) then supplemented with 20% FBS, 100 U/ml penicillin, and 100 μg/ml streptomycin at 37° C. in humidified air with 5% CO2. CCR-2 transfected CHO-K1 cells were cultured in RPMI-1640 supplemented with 10% FBS, 2 mM L-glutamine, 100 units/ml penicillin and streptomycin, and 500 μg/ml G418 at 37° C. in humidified air with 5% CO2. The cytotoxicity of CAMPs (SEQ ID NOs: 1, 2, 3, and 4) to JASWII and CHO-K1 cells was determined using MTT (3-(4,5-dimethylthiazol-2-yl)-2,5-diphenyltetrazolium bromide, Thermo Fisher Scientific) cell proliferation assay. Cells (5×10^3 cells/well) in 96-well microtiter plates were treated with peptides at 64, 128, 256, and 512 μg/ml for 4, 12, 24, and 48 hours at 37° C. After treatment, 20 μl of 12 mM MTT solution was added to each well and the plate was incubated for 4 hours. […] The plates were read using a spectrophotometer at 540 nm. The viability of treated cells was expressed as the percentage of viability relative to the untreated control. […]

The test system of the next data set is CHO-K1 cells. Description: Cell cytotoxicity assay (MTT). It is filed as cell-based, hamster. The conditions noted are these: 4, 16, 64, 256 μg/ml for 4, 12, 24, and 48 hour. On the procedure:
The Cell Cytotoxicity Assay includes the following procedures. Mouse immature dendritic cell line, JAWSII (ATCC CRL-11904™), was cultured in Alpha minimum essential medium with ribonucleosides, deoxyribonucleosides, 4 mM L-glutamine, 1 mM sodium pyruvate, and 5 ng/ml murine Granulocyte macrophage colony-stimulating factor (GM-CSF) then supplemented with 20% FBS, 100 U/ml penicillin, and 100 μg/ml streptomycin at 37° C. in humidified air with 5% CO2. CCR-2 transfected CHO-K1 cells were cultured in RPMI-1640 supplemented with 10% FBS, 2 mM L-glutamine, 100 units/ml penicillin and streptomycin, and 500 μg/ml G418 at 37° C. in humidified air with 5% CO2. The cytotoxicity of CAMPs (SEQ ID NOs: 1, 2, 3, and 4) to JASWII and CHO-K1 cells was determined using MTT (3-(4,5-dimethylthiazol-2-yl)-2,5-diphenyltetrazolium bromide, Thermo Fisher Scientific) cell proliferation assay. Cells (5×10^3 cells/well) in 96-well microtiter plates were treated with peptides at 64, 128, 256, and 512 μg/ml for 4, 12, 24, and 48 hours at 37° C. After treatment, 20 μl of 12 mM MTT solution was added to each well and the plate was incubated for 4 hours. The medium in each well was replaced with 100 μl of dimethyl sulfoxide (DMSO, Sigma-Aldrich) to dissolve MTT crystals. The plates were read using a spectrophotometer at 540 nm. The viability of treated cells was expressed as the percentage of viability relative to the untreated control. The experiment was performed in triplicate.
(§3) Chicken macrophage cell lines MQ-NCSU and HD11 were maintained in RPMI-1640 media supplemented with 10% fetal bovine serum (FBS), 2% chicken serum, 100 U/ml penicillin and 100 μg/ml streptomycin (Sigma-Aldrich) at 37° C. in humidified air with 5% CO2. CHO-K1 cells were cultured in the same media without 2% chicken serum. For CCR2-transfected CHO-K1 cells, medium was supplemented with 500 μg/ml G418 was added (Sigma-Aldrich). Murine immature dendritic cell line JAWSII (ATCC CRL-11904™) was cultured in Alpha minimum essential medium containing 4 mM L-glutamine, 1 mM sodium pyruvate, 5 ng/ml murine Granulocyte macrophage colony-stimulating factor (GM-CSF), 20% FBS, 100 U/ml penicillin and 100 μg/ml streptomycin at 37° C. in humidified air with 5% CO2. The cell cytotoxicity was determined using the MTT (3-(4,5-dimethylthiazol-2-yl)-2,5-diphenyltetrazolium bromide cell proliferation assay according to the manufacturer's instruction (Thermo Fisher Scientific). Briefly, cells (5×10^3 cells/well) were seeded in 96-well tissue culture plates, incubated overnight and treated with the analogues at concentrations of 4, 16, 64 and 256 μg/ml for 4, 12, 24 and 48 hours at 37° C. After treatment, […] 12 mM MTT solution was added to each well. The plate was incubated for 4 hours and read at 540 nm. Viability was expressed as percentage of viable cells relative to the untreated control. The experiments were performed in triplicate.

In data set [5] the test system is chicken macrophage cell line MQ-NCSU. Description: Cell cytotoxicity assay (MTT). The conditions noted are these: 4, 16, 64, 256 μg/ml for 4, 12, 24, and 48 hour. It is filed as cell-based. As to the method:
as §3, with “The experiments were performed in triplicate.” left out

In data set [6] the test system is chicken macrophage cell line HD11. Description: Cell cytotoxicity assay (MTT). In kind it is cell-based. To be noted: 4, 16, 64, 256 μg/ml for 4, 12, 24, and 48 hour. On the procedure:
as §3, with “The experiments were performed in triplicate.” left out

Data set [7] has as its system S. Typhimurium (ATCC 14028). In kind it is cell-based. As to the method: as §2
Data set [8] deals with S. aureus (ATCC 29213). It is filed as cell-based. On the procedure: as §2
The source holds these as a separate data set.

The subject of a further data set is E. coli (ATCC 25922). It is filed as cell-based. As to the method: as §2
[9] abbreviates: standard conditions, CLSI guidelines.

Take “SPIHACRYQRGVCIPGPCRWPYYRVGSCGSGLKSCCVRNRWA (disulfide 6-35, 13-28, 18-36) [AvBD-6]”: the minimum inhibitory concentration (MIC) in data set [1] (S. pseudintermedius (13164006)), in data set [1] (S. pseudintermedius (13193006)), in data set [1] (S. pseudintermedius (13207007)), in [1] (S. pseudintermedius (13228005)), in [1] (S. pseudintermedius (13267017)) and in data set [1] (S. pseudintermedius (13269013)) was greater than 256 µg/mL throughout. The MIC (commonly the least concentration at which growth counts as inhibited) with P. aeruginosa (24 h) is greater than 256 µg/mL; with S. aureus (ATCC 29213) [2], 256 µg/mL. Moreover, the “MICAverage G−” value in the data set with P. aeruginosa (mean over the Gram-negative (P. aeruginosa) strains of Table 2) was greater than 256 µg/mL. For the same sequence, the MBS-Is in data set [3] (low salt condition (5 mM NaCl)) came to 128 µg/mL. For the same sequence, the “MICAverage G+” value in data set [4] was no less than 256 µg/mL.
With “GPHSCNHQRGLCRVGNCNPGYYLAKYCFSPVILCCKPLSPTPTKT (disulfide 5-34, 12-27, 17-35) [AvBD-12/6]”, the “effect on cell viability” value (in the data set with JAWSII cells; in the data set with CHO-K1 cells; in data set [5]; in [6]) was “did not appear to have any effect on cell viability” throughout. For the same sequence, the figures for the MBC-Is (in [7] (low salt condition (5 mM NaCl)); with S. aureus (ATCC 29213) [8] (low salt condition (5 mM NaCl)); with E. coli (ATCC 25922) (low salt condition (5 mM NaCl))) were 64 µg/mL, 256 µg/mL and 32 µg/mL, respectively. Further, the MIC-Is in data set [7] (low salt condition (5 mM NaCl)) worked out at 16 µg/mL; in data set [3] (low salt condition (5 mM NaCl)) it was 64 µg/mL; in the data set with S. aureus (ATCC 29213) [8] (low salt condition (5 mM NaCl)), 256 µg/mL; in the data set with E. coli (ATCC 25922) (low salt condition (5 mM NaCl)) it was 8 µg/mL. Moreover, the minimum inhibitory concentration (MIC) is greater than 256 µg/mL in [7] (setting [9]), greater than 256 µg/mL in [3] (setting [9]), 256 µg/mL against S. aureus (ATCC 29213) [8] (setting [9]) and 256 µg/mL against E. coli (ATCC 25922) (setting [9]).

Source of the values: US11116817B2, “Antimicrobial agents and compositions comprising the same” (THE CURATORS OF THE UNIVERSITY OF MISSOURI, priority 2017, dated 2021).
